For one test, the system named is Zymoseptoria tritici. Briefly: Leaf blotch of wheat (SEPTTR) disease control on wheat seedlings. It counts as in vivo. Details: key to SEPTTR 1DP, HV activity at 100 ppm (% control rating) / SEPTTR 3DC, HV activity at 100 ppm (% control rating) / SEPTTR disease control, 1DP / SEPTTR disease control, 3DC / SEPTTR 1DP disease control rating, HV activity / SEPTTR 3DC disease control rating, HV activity / SEPTTR 3DC, LV activity at 125.1 g/H (% Control rating) / SEPTTR 1DP, LV activity at 125.1 g/H (% Control rating) / SEPTTR 1DP disease control rating, LV activity at 125.1 g/H / SEPTTR 3DC disease control rating, LV activity at 125.1 g/H / SEPTTR 3DC disease control rating, HV activity at 100 ppm / SEPTTR 1DP disease control rating, HV activity at 100 ppm / HV activity at 100 ppm SEPTTR 3DC (disease control rating) / HV activity at 100 ppm SEPTTR 1DP (disease control rating) / LV activity at 125.1 g/H SEPTTR 1DP (disease control rating) / LV activity at 125.1 g/H SEPTTR 3DC (disease control rating): A: > 80; B: ≤ 80; C: Not Tested; D: No Activity Observed in the Reported Assay. The following applies: for SEPTTR 1DP disease control rating, LV activity at 125.1 g/H / SEPTTR 3DC disease control rating, LV activity at 125.1 g/H / SEPTTR 1DP, LV activity at 125.1 g/H (% Control rating) / SEPTTR 3DC, LV activity at 125.1 g/H (% Control rating) / LV activity at 125.1 g/H SEPTTR 1DP (disease control rating) / LV activity at 125.1 g/H SEPTTR 3DC (disease control rating): low volume application; for SEPTTR 1DP disease control rating, LV activity at 125.1 g/H / SEPTTR 1DP disease control rating, HV activity at 100 ppm: 1 day protectant; for SEPTTR 3DC disease control rating, LV activity at 125.1 g/H / SEPTTR 3DC disease control rating, HV activity at 100 ppm: 3 day curative; for SEPTTR 1DP disease control rating, HV activity at 100 ppm / SEPTTR 3DC disease control rating, HV activity at 100 ppm: high volume application.

For another test, the system named is Puccinia triticina. Briefly: Wheat brown rust (PUCCRT) disease control on wheat seedlings. The class given is in vivo. The following applies: for PUCCRT 1DP disease control rating, LV activity at 125.1 g/H / PUCCRT 3DC disease control rating, LV activity at 125.1 g/H / PUCCRT 1DP, LV activity at 125.1 g/H (% Control rating) / PUCCRT 3DC, LV activity at 125.1 g/H (% Control rating) / LV activity at 125.1 g/H PUCCRT 1DP (disease control rating) / LV activity at 125.1 g/H PUCCRT 3DC (disease control rating): low volume application; for PUCCRT 1DP disease control rating, LV activity at 125.1 g/H / PUCCRT 1DP disease control rating, HV activity at 100 ppm: 1 day protectant; for PUCCRT 3DC disease control rating, LV activity at 125.1 g/H / PUCCRT 3DC disease control rating, HV activity at 100 ppm: 3 day curative; for PUCCRT 1DP disease control rating, HV activity at 100 ppm / PUCCRT 3DC disease control rating, HV activity at 100 ppm: high volume application.

Where [1] appears, read: 1 Day Protectant, wheat leaf blotch.
Where [2] appears, read: 3 Day Curative, wheat leaf blotch.
[3] abbreviates: 1 Day Protectant, wheat brown rust.
Where [4] appears, read: 3 Day Curative, wheat brown rust.

Regarding `COc1ccnc(C(=O)NC(C)C(=O)OC(C)C(Oc2ccc(Cl)cc2Cl)c2ccccc2)c1OC(=O)C(C)C` (centres unmarked) [Cmpd 868], in the test on Zymoseptoria tritici, the “SEPTTR 1DP disease control rating, LV activity at 125.1 g/H” value was “B (≤ 80)” and the “SEPTTR 3DC disease control rating, LV activity at 125.1 g/H” value is on record as “B (≤ 80)”. In the test on Puccinia triticina, the “PUCCRT 1DP disease control rating, LV activity at 125.1 g/H” value is “B (≤ 80)” and the “PUCCRT 3DC disease control rating, LV activity at 125.1 g/H” value is given as “B (≤ 80)”.
On to `COc1ccnc(C(=O)N[C@@H](C)C(=O)O[C@@H](C)[C@H](Oc2ccc(Cl)cc2Cl)C2CCCC2)c1OCOC(C)=O` [Cmpd 551], for which, in the test on Zymoseptoria tritici (1 Day Protectant), the “SEPTTR 1DP, LV activity at 125.1 g/H (% Control rating)” value was “A (> 80)”. Also, the “SEPTTR 3DC, LV activity at 125.1 g/H (% Control rating)” value with Zymoseptoria tritici (3 Day Curative) is listed as “B (≤ 80)”. Moreover, the “PUCCRT 1DP, LV activity at 125.1 g/H (% Control rating)” value with Puccinia triticina (1 Day Protectant) is on record as “A (> 80)”. Moreover, the “PUCCRT 3DC, LV activity at 125.1 g/H (% Control rating)” value with Puccinia triticina (3 Day Curative) is recorded as “B (≤ 80)”.
For the compound `COc1ccnc(C(=O)N[C@@H](C)C(=O)O[C@@H](C)[C@H](OCC2CC2)C(C)(C)C)c1O` [Cmpd 1004], in the test on Zymoseptoria tritici, the “SEPTTR 1DP disease control rating, HV activity at 100 ppm” value is “B (≤ 80)” and the “SEPTTR 3DC disease control rating, HV activity at 100 ppm” value is listed as “B (≤ 80)”. Also, in the test with Puccinia triticina, the “PUCCRT 1DP disease control rating, HV activity at 100 ppm” value is listed as “A (> 80)” and the “PUCCRT 3DC disease control rating, HV activity at 100 ppm” value is on record as “A (> 80)”.
Regarding `COc1ccnc(C(=O)NC(C)C(=O)OC(C)C(CC(C)C)Oc2ccc3ccccc3c2)c1OC(C)=O` (centres unmarked) [Cmpd 1099], the “LV activity at 125.1 g/H SEPTTR 1DP (disease control rating)” value in the test with Zymoseptoria tritici (setting [1]) is “B (≤ 80)”. In the test on Zymoseptoria tritici (setting [2]), the “LV activity at 125.1 g/H SEPTTR 3DC (disease control rating)” value was “D”. Besides, the “LV activity at 125.1 g/H PUCCRT 1DP (disease control rating)” value with Puccinia triticina (setting [3]) is listed as “A (> 80)”. Further, in the test on Puccinia triticina (setting [4]), the “LV activity at 125.1 g/H PUCCRT 3DC (disease control rating)” value is reported as “A (> 80)”.
Consider `CCC(CC)C(Oc1cc(F)cc(Cl)c1)C(C)OC(=O)C(C)NC(=O)c1nccc(OC)c1OC(C)=O` (centres unmarked) [Cmpd 677], for which, in the test on Zymoseptoria tritici, the “SEPTTR 1DP disease control rating, LV activity at 125.1 g/H” value is listed as “B (≤ 80)” and the “SEPTTR 3DC disease control rating, LV activity at 125.1 g/H” value was “B (≤ 80)”. In addition, in the test on Puccinia triticina, the “PUCCRT 1DP disease control rating, LV activity at 125.1 g/H” value is “B (≤ 80)” and the “PUCCRT 3DC disease control rating, LV activity at 125.1 g/H” value is on record as “B (≤ 80)”.
As for `COc1ccnc(C(=O)NC(C)C(=O)OC(C)C(Oc2ccccc2)C2CCCCC2)c1O` (centres unmarked) [Cmpd 836], in the test with Zymoseptoria tritici, the “SEPTTR 1DP disease control rating, HV activity at 100 ppm” value is given as “A (> 80)” and the “SEPTTR 3DC disease control rating, HV activity at 100 ppm” value is given as “A (> 80)”. In addition, in the test with Puccinia triticina, the “PUCCRT 1DP disease control rating, HV activity at 100 ppm” value is on record as “A (> 80)” and the “PUCCRT 3DC disease control rating, HV activity at 100 ppm” value is reported as “A (> 80)”.
For `CCC(CC)[C@@H](Oc1ccccc1Cl)[C@H](C)OC(=O)[C@@H](NC(=O)c1nccc(OC)c1OC(C)=O)C(C)C` [Cmpd 662], in the test with Zymoseptoria tritici, the “SEPTTR 1DP disease control rating, LV activity at 125.1 g/H” value is given as “D” and the “SEPTTR 3DC disease control rating, LV activity at 125.1 g/H” value is listed as “B (≤ 80)”. In the test with Puccinia triticina, the “PUCCRT 1DP disease control rating, LV activity at 125.1 g/H” value is reported as “A (> 80)” and the “PUCCRT 3DC disease control rating, LV activity at 125.1 g/H” value was “B (≤ 80)”.
Consider `COc1ccnc(C(=O)NC(C)C(=O)OC(C)C(Oc2ccc3ccccc3c2)C(C)C)c1O` (centres unmarked) [Cmpd 398], for which the “SEPTTR 1DP disease control rating, HV activity” value in the test with Zymoseptoria tritici (HV application at 100 ppm, 1 Day Protectant, wheat leaf blotch) is recorded as “D”. Besides, in the test on Zymoseptoria tritici (HV application at 100 ppm, 3 Day Curative, wheat leaf blotch), the “SEPTTR 3DC disease control rating, HV activity” value was “B (≤ 80)”. For the same compound, the “PUCCRT 1DP disease control rating, HV activity” value in the test with Puccinia triticina (HV application at 100 ppm, 1 Day Protectant, wheat brown rust) is recorded as “A (> 80)”. Moreover, the “PUCCRT 3DC disease control rating, HV activity” value in the test with Puccinia triticina (HV application at 100 ppm, 3 Day Curative, wheat brown rust) is reported as “B (≤ 80)”.
In the case of `COc1ccnc(C(=O)N[C@@H](C)C(=O)O[C@@H](C)[C@H](Oc2cccc(F)c2)C2CCCC2)c1O` [Cmpd 839], in the test on Zymoseptoria tritici, the “SEPTTR 1DP disease control rating, HV activity at 100 ppm” value was “B (≤ 80)” and the “SEPTTR 3DC disease control rating, HV activity at 100 ppm” value was “B (≤ 80)”. Further, in the test with Puccinia triticina, the “PUCCRT 1DP disease control rating, HV activity at 100 ppm” value is “A (> 80)” and the “PUCCRT 3DC disease control rating, HV activity at 100 ppm” value is “A (> 80)”.
`COc1ccnc(C(=O)N[C@H](C(=O)O[C@@H](C)[C@H](Oc2cccc3ccccc23)C(C)C)C(C)C)c1OCOC(C)=O` [Cmpd 624]: the “SEPTTR 1DP, LV activity at 125.1 g/H (% Control rating)” value with Zymoseptoria tritici (1 Day Protectant) is “B (≤ 80)”. Besides, the “SEPTTR 3DC, LV activity at 125.1 g/H (% Control rating)” value with Zymoseptoria tritici (3 Day Curative) is given as “D”. In addition, in the test with Puccinia triticina (1 Day Protectant), the “PUCCRT 1DP, LV activity at 125.1 g/H (% Control rating)” value was “A (> 80)”. The “PUCCRT 3DC, LV activity at 125.1 g/H (% Control rating)” value in the test with Puccinia triticina (3 Day Curative) is “A (> 80)”.
`CCC[C@@H](OCC1CC1)[C@H](C)OC(=O)[C@H](C)NC(=O)c1nccc(OC)c1OC(C)=O` [Cmpd 1057]: the “LV activity at 125.1 g/H SEPTTR 1DP (disease control rating)” value with Zymoseptoria tritici (setting [1]) is listed as “B (≤ 80)”. For the same compound, the “LV activity at 125.1 g/H SEPTTR 3DC (disease control rating)” value in the test on Zymoseptoria tritici (setting [2]) is reported as “B (≤ 80)”. In addition, the “LV activity at 125.1 g/H PUCCRT 1DP (disease control rating)” value in the test with Puccinia triticina (setting [3]) is “B (≤ 80)”. The “LV activity at 125.1 g/H PUCCRT 3DC (disease control rating)” value in the test on Puccinia triticina (setting [4]) was “A (> 80)”.

These data come from patent publication US20180000085A1, “USE OF PICOLINAMIDE COMPOUNDS WITH FUNGICIDAL ACTIVITY” (DOW AGROSCIENCES LLC, priority 2014, published 2018).
